Source: EP1145714A1, “DRUGS” (Takeda Chemical Industries, Ltd., priority 1998, dated 2000)

Legend:
[1] = tested on: acute vomiting induced by cisplatin in ferrets; test: Acute vomiting induced by cisplatin in ferrets, compound orally given; type: in vivo; conditions: cisplatin 10 mg/kg i.p.; for Duration of retching (in hour; mean ± SD) / Duration of vomiting (in hour;, mean ± SD) / Frequency of retching (mean ± SD) / Frequency of vomiting (mean ± SD) / Number of ferrets with retching /number of tested ferrets / Number of ferrets with vomiting /number of tested ferrets / Time period until first retching (in hour; ± mean SD) / Time period until first vomiting (in hour;, mean ± SD): 5 hours
Procedure: 5 to 6 male ferrets (1.2 to 2.3 kg) per one group were used. Cisplatin was intraperitoneally given at 10 mg/10 ml/kg. One hour prior to cisplatin administration, a small volume of a feed was given to the animals. 30 minutes prior to cisplatin administration, predetermined doses of the compound No. 3 were orally given. Similarly, 0.5 % methyl cellulose (MC) solution was orally given to a control animal group under no fasting. The frequency of vomiting was counted in number, up to 5 hours after cisplatin administration.
The compound No. 3 was suspended in 0.5 % methyl cellulose solution to predetermined concentrations, for oral dosing at a ratio of 1 ml per 1 kg body weight. Additionally, 0.5% methyl cellulose solution was orally given at a ratio of 1 ml per 1 kg body weight. The data relating to the frequency of vomiting, the time period (latency) until first vomiting and the time period from the occurrence of vomiting to the termination thereof were statistically analyzed by the Dunnett test, with reference to the difference from the control group.
The acute retching suppression ratio and acute vomiting suppression ratio were calculated by the following formula. [Frequency of retching or vomiting in control] - [Frequency of retching or vomiting in animals dosed with the compound No. 3] / [Frequency of retching or vomiting in control] x 100 (%) [formula]

[2] = tested on: acute vomiting induced by cisplatin in ferrets; test: Acute vomiting induced by cisplatin in ferrets, compound intraperitoneally given; type: in vivo; conditions: 1 mg/kg i.p., cisplatin 10 mg/kg i.p.
Procedure: 6 to 9 male ferrets (1.2 to 1.7 kg) per one group were used. Cisplatin was intraperitoneally given at 10 mg/kg. 30 minutes prior to cisplatin administration, predetermined doses of the compound No. 3 were intraperitoneally given to the animals under fasting. Similarly, PEG 400 was intraperitoneally given to a control animal group under fasting. The frequency of vomiting was counted in number, up to 5 hours after cisplatin administration.
The compound No. 3 was dissolved in PEG 400, for intraperitoneal dosing at a ratio of 1 ml per 1 kg body weight. Additionally, PEG 400 was intraperitoneally given at a ratio of 1 ml per 1 kg body weight. The data relating to the frequency of vomiting, the latency and the time period from the occurrence of vomiting to the termination thereof were statistically analyzed by the t test, with reference to the difference from the control group.
The acute retching suppression ratio and acute vomiting suppression ratio were determined in the same manner as in Example 1,3.

Cc1ccc(-c2c3n(c(=O)c4ncccc24)CC[C@@H](C)CN(Cc2cc(C(F)(F)F)cc(C(F)(F)F)c2)C3=O)cc1 [Cpd. No.3, (9R)-7-[3,5-bis(trifluoromethyl)benzyl]-6,7,8,9,10,11-hexahydro-9-methyl-5-(4-methylphenyl)-6,13-dioxo-13H-[1,4]diazocino[2,1-g][1,7]naphthylidine]
Suppression ratio of acute retching ([1]; 1 mg/kg p.o.): 38 % NS
Suppression ratio of acute vomiting ([1]; 1 mg/kg p.o.): 22 % NS
Duration of retching (in hour; mean ± SD) ([1]; 1 mg/kg p.o.): 1.7 ± 0.4 h
Duration of vomiting (in hour;, mean ± SD) ([1]; 1 mg/kg p.o.): 1.4 ± 0.4 h
Frequency of retching (mean ± SD) ([1]; 1 mg/kg p.o.): 79.0 ± 15.1
Frequency of vomiting (mean ± SD) ([1]; 1 mg/kg p.o.): 8.3 ± 2.2
Number of ferrets with retching /number of tested ferrets ([1]; 1 mg/kg p.o.): 6/6
Number of ferrets with vomiting /number of tested ferrets ([1]; 1 mg/kg p.o.): 6/6
Time period until first retching (in hour; ± mean SD) ([1]; 1 mg/kg p.o.): 1.5 ± 0.1 h
Time period until first vomiting (in hour;, mean ± SD) ([1]; 1 mg/kg p.o.): 1.6 ± 0.1 h
Effect on vomiting (in words) ([1]; 3 mg/kg p.o.): significantly suppressed
Suppression ratio of acute retching ([1]; 3 mg/kg p.o.): 53 % b
Suppression ratio of acute vomiting ([1]; 3 mg/kg p.o.): 27 % NS
Duration of retching (in hour; mean ± SD) ([1]; 3 mg/kg p.o.): 1.7 ± 0.3 h
Duration of vomiting (in hour;, mean ± SD) ([1]; 3 mg/kg p.o.): 1.6 ± 0.4 h
Frequency of retching (mean ± SD) ([1]; 3 mg/kg p.o.): 59.3 ± 12.0 b
Frequency of vomiting (mean ± SD) ([1]; 3 mg/kg p.o.): 7.8 ± 1.3
Number of ferrets with retching /number of tested ferrets ([1]; 3 mg/kg p.o.): 6/6
Number of ferrets with vomiting /number of tested ferrets ([1]; 3 mg/kg p.o.): 6/6
Time period until first retching (in hour; ± mean SD) ([1]; 3 mg/kg p.o.): 1.6 ± 0.1 h
Time period until first vomiting (in hour;, mean ± SD) ([1]; 3 mg/kg p.o.): 1.6 ± 0.1 h
Effect on vomiting (in words) ([1]; 10 mg/kg p.o.): prominently suppressed
Suppression ratio of acute retching ([1]; 10 mg/kg p.o.): 88 % b
Suppression ratio of acute vomiting ([1]; 10 mg/kg p.o.): 70 % b
Duration of retching (in hour; mean ± SD) ([1]; 10 mg/kg p.o.): 2.4 ± 0.5 h
Duration of vomiting (in hour;, mean ± SD) ([1]; 10 mg/kg p.o.): 1.0 ± 0.4 h
Frequency of retching (mean ± SD) ([1]; 10 mg/kg p.o.): 14.8 ± 3.7 b
Frequency of vomiting (mean ± SD) ([1]; 10 mg/kg p.o.): 3.2 ± 1.0 b
Number of ferrets with retching /number of tested ferrets ([1]; 10 mg/kg p.o.): 5/6
Number of ferrets with vomiting /number of tested ferrets ([1]; 10 mg/kg p.o.): 5/6
Time period until first retching (in hour; ± mean SD) ([1]; 10 mg/kg p.o.): 2.1 ± 0.6 h
Time period until first vomiting (in hour;, mean ± SD) ([1]; 10 mg/kg p.o.): 2.2 ± 0.6 h
Effect on cisplatin-induced retching and actual vomiting (in words) [2]: significantly suppressed
Suppression ratio of acute retching [2]: 53 % b
Suppression ratio of acute vomiting [2]: 49 % a
Duration of retching (in minute, mean ± SD) ([2]; 5 hours): 2.6 ± 0.3 min
Duration of vomiting (in minute, mean ± SD) ([2]; 5 hours): 1.7 ± 0.3 b minute
Frequency of retching (mean ± SD) ([2]; 5 hours): 57.5 ± 6.2 b
Frequency of vomiting (mean ± SD) ([2]; 5 hours): 5.7 ± 1.0 a
Number of ferrets with retching /number of tested ferrets ([2]; 5 hours): 6/6
Number of ferrets with vomiting /number of tested ferrets ([2]; 5 hours): 6/6
Time period until first retching (in minute, mean ± SD) ([2]; 5 hours): 1.5 ± 0.1 min
Time period until first vomiting (in minute, mean ± SD) ([2]; 5 hours): 1.8 ± 0.1 min
